Metabolised data for one compound are collected here from PMC8007718, “A prostate-specific membrane antigen (PSMA)-targeted prodrug with a favorable in vivo toxicity profile” (Scientific Reports, 2021).

The target of this data set is T1, cathepsin B (Homo sapiens, UniProt P07858).
T1 construct: gene CTSB; recombinant cathepsin B
Nature of the data set: cleavage by recombinant cathepsin B followed by HPLC (MMAE release). The format is biochemical.

*1 amine or outer side, *2 acyl side, *3 side chain or, on linkers, in order; H or OH if unused. Where a SMILES comes first, the peptide text is derived from it. [ ]: non-standard residue; d: D form. The star is where a group is joined. X1 = O=C(O)CC[C@H](NC(=O)N[C@@H](CCCCNC(=O)CCCCCCC(=O)*)C(=O)O)C(=O)O; Dolaproine = CO[C@@H]([C@@H]1CCCN1)[C@@H](C)C(=O)O; Dil = CC[C@H](C)[C@H](NC)[C@@H](CC(=O)O)OC; PABC = O=C(OCc1ccc(N[*:1])cc1)[*:2]; X2 = C[C@@H](N*)[C@@H](O)c1ccccc1; Cit = NC(=O)NCCC[C@H](N)C(=O)O; NMeV = CN[C@H](C(=O)O)C(C)C

With `CC[C@H](C)[C@@H]([C@@H](CC(=O)N1CCC[C@H]1[C@H](OC)[C@@H](C)C(=O)N[C@H](C)[C@@H](O)c1ccccc1)OC)N(C)C(=O)[C@@H](NC(=O)[C@H](C(C)C)N(C)C(=O)OCc1ccc(NC(=O)[C@H](CCCNC(N)=O)NC(=O)[C@@H](NC(=O)CCCCCCC(=O)NCCCC[C@H](NC(=O)N[C@@H](CCC(=O)O)C(=O)O)C(=O)O)C(C)C)cc1)C(C)C` [SBPD-1, (6S,9S,24S,28S)-1-amino-6-((4-((5S,8S,11S)-11-((S)-sec-butyl)-12-(2-((S)-2-((1R,2R)-3-(((1S,2R)-1-hydroxy-1-phenylpropan-2-yl)amino)-1-methoxy-2-methyl-3-oxopropyl)pyrrolidin-1-yl)-2-oxoethyl)-5,8-diisopropyl-4,10-dimethyl-3,6,9-trioxo-2,13-dioxa-4,7,10-triazatetradecyl)phenyl)carbamoyl)-9-isopropyl-1,8,11,18,26-pentaoxo-2,7,10,19,25,27-hexaazatriacontane-24,28,30-tricarboxylic acid] (X1-V[Cit][PABC][NMeV]V[Dil][Dolaproine]-X2), the metabolised at 3 h was 80%.
